The target of one test is T1, Human recombinant renin (Homo sapiens, UniProt P00797).
T1 construct: purchased Proteos
T1 sequence (P00797 67-406): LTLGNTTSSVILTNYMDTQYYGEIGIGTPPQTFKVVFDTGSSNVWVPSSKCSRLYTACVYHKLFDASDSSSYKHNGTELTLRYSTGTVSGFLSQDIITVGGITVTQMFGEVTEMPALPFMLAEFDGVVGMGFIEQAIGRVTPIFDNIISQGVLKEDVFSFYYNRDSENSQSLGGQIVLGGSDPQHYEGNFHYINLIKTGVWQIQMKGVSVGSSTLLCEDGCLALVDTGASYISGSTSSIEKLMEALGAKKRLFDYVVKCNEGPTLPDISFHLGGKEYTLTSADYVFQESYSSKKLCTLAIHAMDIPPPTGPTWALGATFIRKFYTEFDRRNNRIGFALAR
Put plainly: Inhibition of human recombinant renin (buffer assay). It is filed as biochemical. Conditions: buffer: 50 mM MOPS pH 7.4, 100 pM renin, 6 μM fluorescent peptide, 37° C., 3 hours. The protocol:
Human recombinant renin (Proteos) in 50 mM MOPS pH 7.4, 100 mM NaCl, 0.002% Tween 20 at a final concentration of 100 pM is incubated with inhibitors from a 50 fold concentrated DMSO solution and 6 μM of an internally-quench fluorescent peptide: DNP-Lys-His-Pro-Phe-His-Leu-Val-Ile-His-D,L-Amp (SEQ ID NO: 1); Paschalidou K. et al., Biochem J, 2004, 382, 1031). The reactions take place in a Costar 384 well black plate (#3573) at 37° C. for 3 hours. Fluorescence is measured at times 0 and 3 hours with a SpectraMax Gemini EM reader set at an excitation wavelength of 328 nm and at an emission wavelength of 388 nm. Background fluorescence at t=0 is subtracted from the measurement at t=3 hours. Inhibitory activity of the compounds is expressed as IC50.

The target in the next test is T2, Renin in human plasma (Homo sapiens, UniProt P00797).
T2 construct: purchased Proteos; host or cells: added to human EDTA-collected plasma
T2 sequence (P00797 67-406): T1 sequence (P00797 67-406)
Put plainly: Inhibition of renin in human plasma. It is filed as biochemical. The conditions noted are these: human EDTA plasma, recombinant renin added at 1 nM, 6 μM substrate, 37° C., 1 hour. As to the method:
Human EDTA-collected plasma is rapidly thawed in warm water and centrifuged at 2900 g for 15 minutes at 4° C. The supernatant is collected and recombinant renin (Proteos) is added at a final concentration of 1 nM. The plasma is transferred to a Costar black 384 well plate (#3573). Renin inhibitors are added from a 17.5 fold concentrated DMSO solution and pre-incubated at 37° C. for 10 minutes. The internally-quench fluorescent peptide QX1520™-Lys-His-Pro-Phe-His-Leu-Val-Ile-His-Lys (5-FAM) (Anaspec) is diluted in 3M Tris pH 7.2, 200 mM EDTA and added to the plasma. The final concentrations are: 6 μM substrate, 342 mM Tris, 23 mM EDTA. The plate is incubated at 37° C. for 1 hour. The plate is read in a SpectraMax Gemini EM reader set at an excitation wavelength of 490 nm and an emission wavelength of 520 nm at times 0 and 1 hour. Background fluorescence at t=0 is subtracted from the measurement at t=1 hour. Inhibitory activity of the compounds is expressed as IC50.

As to `CC(=O)NCCc1ccccc1-c1ccc([C@@H]2CNCC[C@]23OCc2cc(F)c(F)cc23)c(C)c1` (racemic) [Example 4, rac-N-(2-{4′-[(1R,3′S)-5,6-Difluoro-3H-spiro[2-benzofuran-1,4′-piperidin]-3′-yl]-3′-methyl-2-biphenylyl}ethyl)acetamide], the IC50 stood at 0.2 nM at Human recombinant renin and 1.4 nM at Renin in human plasma.

With `COCCCc1ccccc1-c1ccc([C@@H]2CNCC[C@]23OCc2cn(C)c(=O)cc23)c(C)c1` (racemic) [Example 5, rac-(1R,3′S)-3′-[2′-(3-Methoxypropyl)-3-methyl-4-biphenylyl]-5-methyl-3,5-dihydro-6H-spiro[furo[3,4-c]pyridine-1,4′-piperidin]-6-one], the IC50 amounted to 1.6 nM on Human recombinant renin and 18 nM at Renin in human plasma.

In the case of `Cc1cc(-c2ccccc2CCNC(=O)CO)ccc1[C@H]1CNCC[C@@]12OC(=O)c1cc(F)c(F)cc12` [Example 11, N-(2-{4′-[(1R,3′S)-5,6-Difluoro-3-oxo-3H-spiro[2-benzofuran-1,4′-piperidin]-3′-yl]-3′-methyl-2-biphenylyl}ethyl)-2-hydroxyacetamide], the IC50 on Human recombinant renin turned out to be 0.66 nM; at Renin in human plasma, 0.82 nM.

As to `CC(=O)NCCc1ccccc1-c1onc([C@H]2CNCC[C@@]23OCc2cc(F)c(F)cc23)c1Br` [Example 13, N-[2-(2-(4-Bromo-3-[(1R,3′R)-5,6-difluoro-3H-spiro[2-benzofuran-1,4′-piperidin]-3′-yl]-5-isoxazolyl)phenyl)ethyl]acetamide], the IC50 on Human recombinant renin came out at 0.26 nM; on Renin in human plasma, 1 nM.

These data come from patent publication US20120202837A1, “SPIROCYCLIC PIPERIDINE DERIVATIVES USEFUL AS RENIN INHIBITORS” (priority 2009, published 2012).
